Data as given in PubChem BioAssay (NCI).
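Briefly, cells in 96-well plates were exposed to five compound concentrations for 48 h, and endpoints were estimated by linear interpolation. GI50: concentration for 50% inhibition of growth. The concentration for full growth arrest is given as TGI.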

Columns and labels:
Assay in all cases: NCI tumour cell line growth inhibition, 48 h; in the data active = GI50 below about 0.43 µM; inactive = the rest
[1] = test system: SF-295 CNS
[2] = test system: BT-549 breast
[3] = test system: A549 NSCLC
[4] = test system: UACC-257 melanoma
[5] = test system: CAKI-1 renal
[6] = test system: COLO 205 colon
[7] = test system: OVCAR-4 ovarian
[8] = test system: NCI-H226 lung
[9] = test system: NCI-H522 lung
[10] = test system: SW-620 colon
[11] = test system: 786-0 renal
[12] = test system: SK-MEL-2 melanoma
[13] = test system: UACC-62 melanoma
[14] = test system: HS 578T breast
[15] = test system: A498 renal
[16] = test system: RXF 393 renal
[17] = test system: OVCAR-8 ovarian
[18] = test system: TK-10 renal
[19] = test system: SF-268 CNS
[20] = test system: KM12 colon
[21] = test system: U251 CNS
[22] = test system: HCT-116 colon
[23] = test system: IGROV1 ovarian
[24] = test system: NCI/ADR-RES ovarian
[25] = test system: RPMI-8226 leukemia
[26] = test system: SR leukemia
[27] = test system: HL-60(TB) leukemia
[28] = test system: ACHN renal
[29] = test system: K-562 leukemia
[30] = test system: MOLT-4 leukemia
[31] = test system: UO-31 renal
[32] = test system: OVCAR-5 ovarian
[33] = test system: NCI-H23 lung
[34] = test system: PC-3 prostate
[35] = test system: HT29 colon
[36] = test system: SNB-19 CNS
[37] = test system: SNB-75 CNS
[38] = test system: SN12C renal
[39] = test system: SK-MEL-5 melanoma
[40] = test system: DU-145 prostate
[41] = test system: SF-539 CNS
[42] = test system: OVCAR-3 ovarian
[43] = test system: M14 melanoma
[44] = test system: EKVX NSCLC
[45] = test system: MDA-MB-231 breast
[46] = test system: NCI-H460 lung
[47] = test system: MCF7 breast
[48] = test system: LOX IMVI melanoma
[49] = test system: HCT-15 colon
[50] = test system: SK-MEL-28 melanoma
[51] = test system: MDA-MB-435
[52] = test system: CCRF-CEM leukemia
[53] = test system: MALME-3M melanoma
[54] = test system: HOP-62 NSCLC
[55] = test system: HOP-92 NSCLC
[56] = test system: SK-OV-3 ovarian
[57] = test system: HCC-2998 colon

CCCN1C(=O)/C(=C/c2cccc(O)c2)SC1=Nc1ccccc1
36.9 µM: TGI [16]
33.8 µM: TGI [35]
37.7 µM: TGI [46]
41.5 µM: TGI [6]
25.5 µM: TGI [48]
25.6 µM: TGI [40]
32.9 µM: TGI [37]
29.6 µM: TGI [49]
36 µM: TGI [4]
58.4 µM: TGI [7]
51.3 µM: TGI [51]
67.8 µM: TGI [43]
33.9 µM: TGI [44]
34.7 µM: TGI [14]
30.8 µM: TGI [2]
31.7 µM: TGI [3]
34 µM: TGI [41]
17.1 µM: TGI [15]
29.9 µM: TGI [13]
26.9 µM: TGI [20]
57.3 µM: TGI [19]
33.1 µM: TGI [24] | TGI [34]
36.5 µM: TGI [12]
42.5 µM: TGI [50]
60 µM: TGI [9]
> 100 µM: TGI [22] | TGI [26] | TGI [27] | TGI [29] | TGI [30] | TGI [47]
28.2 µM: TGI [21]
37.9 µM: TGI [17]
29.1 µM: TGI [38]
44.4 µM: TGI [23]
35.2 µM: TGI [39]
34.5 µM: TGI [36]
inactive: GI50 [1] 19 µM | GI50 [2] 17.1 µM | GI50 [3] 15.1 µM | GI50 [4] 18.8 µM | GI50 [5] 22 µM | GI50 [6] 18.4 µM | GI50 [7] 23.2 µM | GI50 [8] 20.8 µM | GI50 [9] 22.3 µM | GI50 [10] 18.5 µM | GI50 [11] 20.7 µM | GI50 [12] 16.6 µM | GI50 [13] 16.4 µM | GI50 [14] 16.7 µM | GI50 [15] 2.7 µM | GI50 [16] 17.6 µM | GI50 [17] 19 µM | GI50 [18] 6.7 µM | GI50 [19] 22.7 µM | GI50 [20] 11.9 µM | GI50 [21] 14.1 µM | GI50 [22] 38.3 µM | GI50 [23] 20 µM | GI50 [24] 17.3 µM | GI50 [25] 14.5 µM | GI50 [26] 17.5 µM | GI50 [27] 30.8 µM | GI50 [28] 16.4 µM | GI50 [29] 6.72 µM | GI50 [30] 38 µM | GI50 [31] 17.4 µM | GI50 [32] 16.8 µM | GI50 [33] 19 µM | GI50 [34] 16.9 µM | GI50 [35] 17.3 µM | GI50 [36] 18 µM | GI50 [37] 15.1 µM | GI50 [38] 15.7 µM | GI50 [39] 19.6 µM | GI50 [40] 13 µM | GI50 [41] 18.8 µM | GI50 [42] 17.7 µM | GI50 [43] 29 µM | GI50 [44] 19.2 µM | GI50 [45] 11.4 µM | GI50 [46] 14.8 µM | GI50 [47] 24.4 µM | GI50 [48] 11.8 µM | GI50 [49] 14.8 µM | GI50 [50] 21.1 µM | GI50 [51] 22.7 µM
34.3 µM: TGI [25] | TGI [33]
31 µM: TGI [32]
41.2 µM: TGI [8]
24 µM: TGI [18] | TGI [45]
49.9 µM: TGI [11]
31.2 µM: TGI [28]
83.8 µM: TGI [1]
34.4 µM: TGI [10] | TGI [31]
38 µM: TGI [5]
32.3 µM: TGI [42]

O=S(=O)(O)c1cc(N=Nc2c(O)ccc3ccccc23)c2c(S(=O)(=O)O)cccc2c1
> 100 µM: TGI [1] | TGI [2] | TGI [3] | TGI [4] | TGI [5] | TGI [6] | TGI [7] | TGI [52] | TGI [8] | TGI [53] | TGI [9] | TGI [10] | TGI [11] | TGI [12] | TGI [13] | TGI [14] | TGI [16] | TGI [17] | TGI [54] | TGI [18] | TGI [19] | TGI [55] | TGI [20] | TGI [21] | TGI [22] | TGI [23] | TGI [24] | TGI [25] | TGI [26] | TGI [27] | TGI [28] | TGI [29] | TGI [30] | TGI [31] | TGI [32] | TGI [33] | TGI [56] | TGI [34] | TGI [35] | TGI [36] | TGI [37] | TGI [39] | TGI [41] | TGI [42] | TGI [43] | TGI [44] | TGI [45] | TGI [57] | TGI [46] | TGI [47] | TGI [49] | TGI [50] | TGI [51]
